From ChEMBL document CHEMBL1152017, “Peptide-binding antibiotics: A solid-phase assay for screening libraries of vancomycin mimics for selective d-Ala-d-Ala binding” (Bioorg Med Chem Lett, 1997)

Test: The compound was tested for binding constant against d-Ala-d-Ala termini on bacterial cell surface

SMILES | KA [mM⁻¹]
C[C@H](NC(=O)CNS(=O)(=O)c1cccc2c(N(C)C)cccc12)C(=O)O[C@H](C)C(=O)O | < 0.02
C[C@H](NC(=O)[C@H](C)NC(=O)CNS(=O)(=O)c1cccc2c(N(C)C)cccc12)C(=O)O | 1.1
C[C@@H](NC(=O)[C@@H](C)NC(=O)CNS(=O)(=O)c1cccc2c(N(C)C)cccc12)C(=O)O | 1.3
C[C@H](NC(=O)CNS(=O)(=O)c1cccc2c(N(C)C)cccc12)C(=O)N[C@H](C)C(=O)O | 16
